According to US8680275B2, “Fused heterocyclic compounds as orexin receptor modulators” (Janssen Pharmaceutica NV, priority 2009, dated 2014):

Columns and labels:
[1] = molecular target: human orexin 1 receptor (Homo sapiens (Human), UniProt O43613); assay: Human orexin 1 receptor radioligand binding ([3H]-SB674042 competition); settings: CHO cells stably expressing human orexin 1 receptor; [3H]-SB674042 4 nM final; read-out: OR-1 Ki
Protocol: (§1) The in vitro affinity of the compounds for the human orexin-1 and orexin-2 receptors was determined by competitive radioligand binding using [^3H]SB SB674042 (1-(5-(2-fluoro-phenyl)-2-methyl-thiazol-4-yl)-1-((S)-2-(5-phenyl-(1,3,4)oxadiazol-2-ylmethyl)-pyrrolidin-1-yl)methanone) (Langmead et al., British Journal of Pharmacology 2004, 141:340-346.) and [^3H]EMPA (N-ethyl-2[(6-methoxy-pyridin-3-yl)-(toluene-2-sulfonyl)-amino]-N-pyridin-3-ylmethyl acetamide) (Malherbe et al., British Journal of Pharmacology, 2009, 156(8), 1326-1341), respectively.
Human Orexin 1 Receptor Radioligand Binding Studies
Chinese ovary cells (CHO) stably expressing human orexin 1 receptor (Genebank accession number NM_001526) were grown to confluency in DMEM/F12 (Gibco, Cat #11039), 10% FBS, 1× Pen/Strep, 600 μg/mL G418 media on 150 cm^2 tissue culture plates, washed with 5 mM EDTA in PBS (HyClone Dulbecco's Phoshpate Buffered Saline 1× with Calcium and Magnesium, Cat #SH30264.01, hereafter referred to simply as PBS) and scraped into 50 ml tubes. After centrifugation (2K xG, 10 min at 4° C.), the supernatant was aspirated and the pellets frozen and stored at −80° C. Cells were resuspended in PBS in the presence of 1 tablet of protease inhibitor cocktail (Roche, Cat. #11836145001) per 50 mL. […] Compounds were solubilized in 100% DMSO (Acros Organics, Cat. #61042-1000) and tested over a range of 7 concentrations (from 0.1 nM to 10 μM). The final concentration of DMSO in the reactions is equal to or less than 0.1%. Total and nonspecific binding was determined in the absence and presence of 10 μM (1-(6,8-difluoro-2-methylquinolin-4-yl)-3-[4-(dimethylamino)phenyl]urea, CAS Registry #288150-92-5). The total volume of each reaction is 200 μL (20 μL of diluted compounds, 80 μL of [^3H]-SB674042 diluted in PBS and 100 μL of the cell suspension). Reactions were run for 60 min at room temperature and terminated by filtration through GF/C filter plates (PerkinElmer, Cat. #6005174) presoaked in 0.3% polyethylenimine using the cell harvester (PerkinElmer Filtermate). The plates were washed 3 times by aspirating 30 ml PBS through the plates. Plates were dried in 55° C. oven for 60 min, scintillation fluid was added, and the radioactivity was counted on a Topcount (Packard).

[2] = molecular target: human orexin-2 receptor (Homo sapiens (Human), UniProt O43614); assay: Human orexin 2 receptor radioligand binding ([3H]-EMPA competition); settings: HEK293 cells stably expressing human orexin-2 receptor; [3H]-EMPA 5 nM final; read-out: OR-2 Ki
Chain of human orexin-2 receptor (O43614 whole entry): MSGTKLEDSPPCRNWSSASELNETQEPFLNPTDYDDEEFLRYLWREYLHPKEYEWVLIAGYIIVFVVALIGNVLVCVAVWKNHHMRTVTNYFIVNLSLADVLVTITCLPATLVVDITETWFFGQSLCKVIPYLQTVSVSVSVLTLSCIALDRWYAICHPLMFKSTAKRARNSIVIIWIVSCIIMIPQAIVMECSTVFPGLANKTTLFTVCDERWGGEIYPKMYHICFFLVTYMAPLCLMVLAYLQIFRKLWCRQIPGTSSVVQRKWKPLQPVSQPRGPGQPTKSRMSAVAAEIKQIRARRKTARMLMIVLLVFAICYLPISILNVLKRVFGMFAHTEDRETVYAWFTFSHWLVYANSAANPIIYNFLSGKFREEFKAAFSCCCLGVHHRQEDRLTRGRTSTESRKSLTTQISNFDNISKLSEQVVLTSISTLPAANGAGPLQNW
Protocol: as §1
Human Orexin 2 Receptor Radioligand Binding Studies
HEK293 stably expressing human orexin-2 receptor (Genebank accession number NM_001526) were grown to confluency in DMEM/F12 (Gibco, Cat #11039), in DMEM, 10% FBS, 1× Pen/Strep, 1× NaPyruvate, 1×HEPES, 600 ug/ml G418 media on 150 cm^2 tissue culture plates, washed with 5 mM EDTA in PBS (HyClone Dulbecco's Phosphate Buffered Saline 1× with Calcium and Magnesium, Cat #SH30264.01, hereafter referred to simply as PBS) and scraped into 50 ml tubes. After centrifugation (2K xG, 10 min at 4° C.), the supernatant was aspirated and the pellets frozen and stored at −80° C. Cells were resuspended in PBS in the presence of 1 tablet of protease inhibitor cocktail (Roche, Cat. #11836145001) per 50 mL. […] Competition binding experiments in 96 well polypropylene plates were performed using [^3H]-EMPA (Moravek Corporation, specific activity=27 Ci/mmol), diluted to a […] concentration in PBS (5 nM final concentration). Compounds were solubilized in 100% DMSO (Acros Organics, Cat. #61042-1000) and tested over a range of 7 concentrations (from 0.1 nM to 10 μM). The final concentration of DMSO in the reactions is equal to or less than 0.1%. Total and nonspecific binding was determined in the absence and presence of 10 μM (N-[2-(3,4-dimethoxyphenyl)ethyl]-N-methylnaphthalene-1-carboxamide, CAS Registry #1089563-88-1). The total volume of each reaction is 200 μL (20 μL of diluted compounds, 80 μL of [^3H]-EMPA diluted in PBS and 100 μL of the cell suspension). Reactions were run for 60 min at room temperature and terminated by filtration through GF/C filter plates (PerkinElmer, Cat. #6005174) presoaked in 0.3% polyethylenimine using the cell harvester (Perkin Elmer Filtermate). The plates were washed 3 times by aspirating 30 ml PBS through the plates. Plates were dried in 55° C. oven for 60 min, scintillation fluid was added, and the radioactivity was counted on a Topcount (Packard).

Chain of human orexin 1 receptor (O43613 whole entry): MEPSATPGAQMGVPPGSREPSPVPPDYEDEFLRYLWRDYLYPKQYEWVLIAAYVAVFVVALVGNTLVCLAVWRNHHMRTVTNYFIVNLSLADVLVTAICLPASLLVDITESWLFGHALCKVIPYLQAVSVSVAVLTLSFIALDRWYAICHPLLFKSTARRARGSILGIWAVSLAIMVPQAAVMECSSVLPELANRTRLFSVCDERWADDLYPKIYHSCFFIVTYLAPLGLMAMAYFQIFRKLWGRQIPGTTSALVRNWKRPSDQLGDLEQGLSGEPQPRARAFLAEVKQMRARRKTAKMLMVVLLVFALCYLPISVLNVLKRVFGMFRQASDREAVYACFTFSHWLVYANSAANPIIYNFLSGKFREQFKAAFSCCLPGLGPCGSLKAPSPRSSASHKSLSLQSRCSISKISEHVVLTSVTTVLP

What does the source list for `O=C(c1ccccc1-c1cccs1)N1C[C@@H]2CN(c3nccc(-c4ccccc4)n3)[C@@H]2C1` (single isomer, unassigned) [Example 55, 6-(4-Phenylpyrimidin-2-yl)-3-[(2-thiophen-2-ylphenyl)carbonyl]-3,6-diazabicyclo[3.2.0]heptane]?
Ki [1]: 274 nM; Ki [2]: 92 nM

How did the Ki [1] turn out when `O=C(c1ccccc1-c1cccs1)N1C[C@H]2CN(c3nccc(-c4ccccc4)n3)[C@H]2C1` (single isomer, unassigned) [Example 56, 6-(4-Phenylpyrimidin-2-yl)-3-[(2-thiophen-2-ylphenyl)carbonyl]-3,6-diazabicyclo[3.2.0]heptane] was run?
Its Ki is 55 nM.

What about the Ki [2] of the same molecule?
Its Ki is 129 nM.

Which Ki [1] does the source give for `Cc1cc(C)nc(N2C[C@@H]3CCN(C(=O)c4ccccc4-c4cccs4)C[C@@H]32)n1` [Example 1, (1R,6S)[8-(4,6-Dimethyl-pyrimidin-2-yl)-3,8-diaza-bicyclo[4.2.0]oct-3-yl]-(2-thiophen-2-yl-phenyl)-methanone] here?
Its Ki is 64 nM.

What about the Ki [2] of the same molecule?
Its Ki is 4 nM.

For `Cc1cc(C)nc(N2C[C@@H]3CCN(C(=O)c4ccccc4-c4ccco4)C[C@@H]32)n1` [Example 2, (1R,6S)[8-(4,6-Dimethyl-pyrimidin-2-yl)-3,8-diaza-bicyclo[4.2.0]oct-3-yl]-(2-furan-2-yl-phenyl)-methanone], which Ki [2] is on record?
The Ki was 4 nM.

Which results are given for `Cc1cc(C)nc(N2C[C@@H]3CCN(C(=O)c4ccccc4-c4ccccc4)C[C@@H]32)n1` [Example 3, (1R,6S)-Biphenyl-2-yl-[8-(4,6-dimethyl-pyrimidin-2-yl)-3,8-diaza-bicyclo[4.2.0]oct-3-yl]-methanone]?
Ki [1]: 169 nM; Ki [2]: 8 nM

With `O=C(c1ccccc1-c1cccs1)N1CC[C@H]2CN(c3cnc4ccccc4n3)[C@H]2C1` [Example 4, (1R,6S)(8-Quinoxalin-2-yl-3,8-diaza-bicyclo[4.2.0]oct-3-yl)-(2-thiophen-2-yl-phenyl)-methanone] as the molecule, how does the Ki [2] read?
The Ki was 7 nM.

What does the source list for `O=C(c1ccccc1-c1ccco1)N1CC[C@H]2CN(c3cnc4ccccc4n3)[C@H]2C1` [Example 6, (1R,6S)(2-Furan-2-yl-phenyl)-(8-quinoxalin-2-yl-3,8-diaza-bicyclo[4.2.0]oct-3-yl)-methanone]?
Ki [1]: 18 nM; Ki [2]: 20 nM

How did the Ki [1] turn out when `Cc1cc(C)nc(N2C[C@@H]3CCN(C(=O)c4ccccc4-n4cccc4)C[C@@H]32)n1` [Example 7, (1R,6S)[8-(4,6-Dimethyl-pyrimidin-2-yl)-3,8-diaza-bicyclo[4.2.0]oct-3-yl]-(2-pyrrol-1-yl-phenyl)-methanone] was run?
The Ki was 371 nM.

And the Ki [2]?
Its Ki is 15 nM.

`O=C(c1ccccc1-c1ccccc1)N1CCC2CN(c3nccc(-c4ccccc4)n3)C2C1` (stereo not drawn) [Example 9, Biphenyl-2-yl-[8-(4-phenyl-pyrimidin-2-yl)-3,8-diaza-bicyclo[4.2.0]oct-3-yl]-methanone] was tested. Which Ki [1] did it give?
Its Ki is 22 nM.

What about the Ki [2] of the same molecule?
Its Ki is 33 nM.

For `Cc1ccc(-c2ccccc2C(=O)N2CC[C@H]3CN(c4cnc5ccccc5n4)[C@H]3C2)cc1` [Example 10, (1R,6S)(4′-Methyl-biphenyl-2-yl)-(8-quinoxalin-2-yl-3,8-diaza-bicyclo[4.2.0]oct-3-yl)-methanone], which Ki [1] is on record?
The Ki was 18 nM.

And the Ki [2]?
The Ki was 44 nM.

How did the Ki [1] turn out when `O=C(c1ccccc1-c1ccccc1)N1CCC2CN(c3nc4ccccc4o3)C2C1` (stereo not drawn) [Example 11, (8-Benzooxazol-2-yl-3,8-diaza-bicyclo[4.2.0]oct-3-yl)-biphenyl-2-yl-methanone] was run?
Its Ki is 143 nM.

And the Ki [2]?
The Ki was 140 nM.

Which Ki [2] does the source give for `CCOc1ccc2ccccc2c1C(=O)N1CC[C@H]2CN(c3nc(C)cc(C)n3)[C@H]2C1` [Example 24, (1R,6S)[8-(4,6-Dimethyl-pyrimidin-2-yl)-3,8-diaza-bicyclo[4.2.0]oct-3-yl]-(2-ethoxy-naphthalen-1-yl)-methanone] here?
The Ki was 6 nM.

`Cc1cc(C)nc(N2C[C@@H]3CCN(C(=O)c4ccccc4-n4nccn4)C[C@@H]32)n1` [Example 25, (1R,6S)-[8-(4,6-Dimethyl-pyrimidin-2-yl)-3,8-diaza-bicyclo[4.2.0]oct-3-yl]-(2-[1,2,3]triazol-2-yl-phenyl)-methanone] was tested. Which Ki [1] did it give?
The Ki was 416 nM.

Which Ki [2] does the source give for `O=C(c1cc(F)ccc1-c1ncccn1)N1CC[C@H]2CN(c3cnc4ccccc4n3)[C@H]2C1` [Example 33, (1R,6S)(5-Fluoro-2-pyrimidin-2-yl-phenyl)-(8-quinoxalin-2-yl-3,8-diaza-bicyclo[4.2.0]oct-3-yl)-methanone] here?
The Ki was 51 nM.

How did the Ki [1] turn out when `Cc1cc(C)nc(N2C[C@@H]3CCN(C(=O)c4cc(F)ccc4-n4nccn4)C[C@@H]32)n1` [Example 41, (1R,6S)-[8-(4,6-Dimethyl-pyrimidin-2-yl)-3,8-diaza-bicyclo[4.2.0]oct-3-yl]-(5-fluoro-2-[1,2,3]triazol-2-yl-phenyl)-methanone] was run?
Its Ki is 441 nM.

How did the Ki [2] turn out when `Cc1cc(N2C[C@@H]3CCN(C(=O)c4cc(F)ccc4-n4nccn4)C[C@@H]32)nc(C(F)(F)F)n1` [Example 42, (1R,6S)-(5-Fluoro-2-[1,2,3]triazol-2-yl-phenyl)-[8-(6-methyl-2-trifluoromethyl-pyrimidin-4-yl)-3,8-diaza-bicyclo[4.2.0]oct-3-yl]-methanone] was run?
The Ki was 34 nM.

For `Cc1cc(N2C[C@@H]3CCN(C(=O)c4ccc(F)cc4-n4nccn4)C[C@@H]32)nc(N(C)C)n1` [Example 45, (1R,6S)-[8-(2-Dimethylamino-6-methyl-pyrimidin-4-yl)-3,8-diaza-bicyclo[4.2.0]oct-3-yl]-(4-fluoro-2-[1,2,3]triazol-2-yl-phenyl)-methanone], which Ki [1] is on record?
The Ki was 697 nM.

`Cc1nccnc1N1C[C@@H]2CCN(C(=O)c3cc(F)ccc3-n3nccn3)C[C@@H]21` [Example 107, (1R,6S)-3-{[5-Fluoro-2-(2H-1,2,3-triazol-2-yl)phenyl]carbonyl}-8-(3-methylpyrazin-2-yl)-3,8-diazabicyclo[4.2.0]octane] was tested. Which Ki [1] did it give?
The Ki was 10000 nM.

For `Cc1nccnc1N1C[C@@H]2CCN(C(=O)c3cccc(F)c3-n3nccn3)C[C@@H]21` [Example 109, (1R,6S)-3-{[3-Fluoro-2-(2H-1,2,3-triazol-2-yl)phenyl]carbonyl}-8-(3-methylpyrazin-2-yl)-3,8-diazabicyclo[4.2.0]octane], which Ki [2] is on record?
The Ki was 10000 nM.

Which Ki [1] does the source give for `COc1cnc(C)nc1C(=O)N1CC[C@H]2CN(c3nc(C)cc(C)n3)[C@H]2C1` [Example 136, (1R,6S)-8-(4,6-Dimethylpyrimidin-2-yl)-3-[(5-methoxy-2-methylpyrimidin-4-yl)carbonyl]-3,8-diazabicyclo[4.2.0]octane] here?
The Ki was 10000 nM.

How did the Ki [2] turn out when `Cc1cc(C)nc(N2C[C@@H]3CCN(C(=O)c4ccccc4-c4ncn[nH]4)C[C@@H]32)n1` [Example 172, (1R,6S)-8-(4,6-Dimethylpyrimidin-2-yl)-3-{[2-(1H-1,2,4-triazol-5-yl)phenyl]carbonyl}-3,8-diazabicyclo[4.2.0]octane] was run?
Its Ki is 48 nM.
